Here are results for 14 molecules from patent US20250326741A1, “GLUCOSE-DEPENDENT INSULINOTROPIC POLYPEPTIDE RECEPTOR ANTAGONISTS AND USES THEREOF” (Pfizer Inc., priority 2024, published 2025).

This assay has as its target T1, human Glucose-dependent Insulinotropic Polypeptide Receptor (hGIPR) (Homo sapiens, UniProt P48546).
T1 sequence (P48546 22-466): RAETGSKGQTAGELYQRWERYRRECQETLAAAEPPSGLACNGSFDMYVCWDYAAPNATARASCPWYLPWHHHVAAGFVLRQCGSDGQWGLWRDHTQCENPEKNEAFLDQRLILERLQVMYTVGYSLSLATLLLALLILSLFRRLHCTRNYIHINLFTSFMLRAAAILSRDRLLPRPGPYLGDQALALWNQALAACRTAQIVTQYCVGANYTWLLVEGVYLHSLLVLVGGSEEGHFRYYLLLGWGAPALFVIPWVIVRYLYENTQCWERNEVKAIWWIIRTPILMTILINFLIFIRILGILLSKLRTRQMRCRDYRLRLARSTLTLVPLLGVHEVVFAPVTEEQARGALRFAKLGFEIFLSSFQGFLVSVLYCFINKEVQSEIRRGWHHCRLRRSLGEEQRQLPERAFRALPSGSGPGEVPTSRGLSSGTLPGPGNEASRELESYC
The experiment in a line: Functional in vitro GIPR antagonist potency assay (intracellular cAMP, HTRF, hGIP stimulation at EC80). The class given is cell-based. Conditions: geometric mean; CHO-K1 cells stably expressing human GIPR, cAMP after hGIP stimulation at EC80. How it is done:
Example AA. Functional In Vitro GIPR Antagonist Potency Assay
The functional in vitro antagonist potency for test compounds was determined by monitoring intracellular cyclic adenosine monophosphate (cAMP) levels in Chinese hamster ovary (CHO)—K1 cells stably expressing the human Glucose-dependent Insulinotropic Polypeptide Receptor (hGIPR). Following agonist activation, hGIPR associates with the G-protein complex causing the Gas subunit to exchange bound guanosine diphosphate (GDP) for guanosine triphosphate (GTP), followed by dissociation of the Gas-GTP complex. The activated Gas subunit can couple to downstream effectors to regulate the levels of second messengers or cAMP within the cell. Thereby, determination of intracellular cAMP levels allows for pharmacological characterization. Intracellular cAMP levels are quantitated using a homogenous assay utilizing the Homogeneous Time Resolved Fluorescence (HTRF) technology from Perkin Elmer. The method is a competitive immunoassay between native cAMP produced by the cells and cAMP labelled with the acceptor dye, d2. The two entities compete for binding to a monoclonal anti-cAMP antibody labeled with cryptate. The specific signal is inversely proportional to the concentration of cAMP in the cells.
Test compounds were solubilized to a concentration of 30 mM in 100% dimethyl sulfoxide (DMSO). An 11-point dilution series using 1 in 3.162-fold serial dilutions was created in 100% DMSO with a top concentration of 8 mM. The serially diluted compound was spotted with an Echo Acoustic liquid handler (Beckman Coulter) into a 384-well assay plate (Corning, Cat No. 3824) at 50 nL/well with duplicate points at each concentration, at a 200× final assay concentration (FAC). The final compound concentration range in the assay was 40 μM to […], with a final DMSO concentration of 0.5%.
Frozen assay-ready vials (at 1×10^7 cells/vial) of CHO-K1 cells stably expressing the Gs-coupled human GIPR receptor (Eurofins, DiscoverX, Cat No. 95-0146C2) were thawed, counted, and resuspended in assay buffer consisting of Hank's Balanced Salt Solution (HBSS, Lonza Cat No. 10-527) containing 20 mM (4-(2-hydroxyethyl)-1-piperazineethanesulfonic acid (HEPES, Lonza, Cat No. 17-737E), 0.1% bovine serum albumin (BSA, Sigma, Cat No. A7979), and 200 μM 3-isobutyl-1-methylxanthine (IBMX, Sigma, Cat No. 15879) at a density of 4×10^5 cells/mL. Cells were added to assay plate (5 μL/well of 4×10^5 cells/mL stock for 2,000 cells/well final) containing 50 nL of 200×FAC test compound, and incubated at 37° C. (95% O2: 5% CO2) for 2 hours, with micro-clime lids (Labcyte, Cat No. LLS-0310). Following the 2-hour cell and compound incubation, a stimulation mix comprised of hGIPR agonist human glucose-dependent insulinotropic polypeptide (hGIP, full length, Sigma Cat No. G2269) in assay buffer/0.1% DMSO was added to the assay plate (5 μL/well) at an estimated EC80 FAC (based on previous hGIP agonist curves) and incubated for another 30 minutes with micro-clime lids at 37° C. (95% O2: 5% CO2), after which intracellular cAMP levels were quantified as per Perkin Elmer's protocol (5 μL of d2 and then 5 μL cryptate, incubated for 1 hour at room temperature). Emission spectra of samples were measured on a Pherastar plate reader (BMG Labtech Inc) using a HTRF protocol (excitation, 320 nm; emission, 665 nm/620 nm).
(95% O2: 5% CO2), with a micro-clime lid. Following the 2-hour cell and DMSO incubation, a hGIP concentration response curve at 2×FAC (12-point curve using 1 in 3 serial dilutions, with triplicate points at each concentration, 100 nM final top concentration) in assay buffer/1% DMSO was added (5 μL/well) and incubated for a further 30 minutes with a micro-clime lid at 37° C. (95% O2: 5% CO2), after which intracellular cAMP levels were quantified and samples measured as described previously. Experiments passed quality control if the agonist concentration used for stimulation fell between the on-the-day EC50-EC90. […]
Take `Cc1cc(NC(=O)N2CCC[C@@H]2C(=O)Nc2ccn(-c3ccc(C(=O)O)cc3)n2)ccc1C(F)(F)F` [Example 31, 4-{3-[(1-{[3-methyl-4-(trifluoromethyl)phenyl]carbamoyl}-D-prolyl)amino]-1H-pyrazol-1-yl}benzoic acid]: half-maximal inhibition (IC50) was put at 24 nM.

Consider `Cc1cc(-n2ccc(NC(=O)[C@H]3CCCN3C(=O)NCc3ccc(C4CC4)cc3)n2)ccc1C(=O)O` [Example 47, 4-{3-[(1-{[(4-cyclopropylphenyl)methyl]carbamoyl}-D-prolyl)amino]-1H-pyrazol-1-yl}-2-methylbenzoic acid], for which half-maximal inhibition (IC50) was put at 220 nM.

The molecule `Cc1cc(-n2ccc(NC(=O)[C@H]3CCCN3C(=O)Nc3ccc(C(C)C)c(F)c3)n2)ccc1C(N)=O` [Example 16, (2R)—N^2-[1-(4-Carbamoyl-3-methylphenyl)-1H-pyrazol-3-yl]-N^1-[3-fluoro-4-(propan-2-yl)phenyl]pyrrolidine-1,2-dicarboxamide] displayed an IC50 of 110 nM.

`Cc1cc(-n2ccc(NC(=O)[C@H]3CCCN3C(=O)CNc3ccc(C(F)(F)F)cc3)n2)ccc1C(N)=O` [Example 61, N-[4-(trifluoromethyl)phenyl]glycyl-N-[1-(4-carbamoyl-3-methylphenyl)-1H-pyrazol-3-yl]-D-prolinamide]: the midpoint of inhibition, the IC50, lay at 450 nM.

Regarding `Cc1cc(-n2ccc(NC(=O)[C@H]3CCCN3C(=O)COc3ccc(C(F)(F)F)cc3)n2)ccc1C(N)=O` [Example 60, N-[1-(4-carbamoyl-3-methylphenyl)-1H-pyrazol-3-yl]-1-{[4-(trifluoromethyl)phenoxy]acetyl}-D-prolinamide], the IC50 turned out to be 210 nM.

In the case of `Cc1cc(-n2ccc(NC(=O)[C@H]3CCCN3C(=O)COc3ccc(OC(F)(F)F)cc3)n2)ccc1C(=O)O` [Example 63, 2-methyl-4-{3-[(1-{[4-(trifluoromethoxy)phenoxy]acetyl}-D-prolyl)amino]-1H-pyrazol-1-yl}benzoic acid], inhibition was half-maximal at 46 nM (IC50).

In turn, `Cc1cc(-n2ccc(NC(=O)[C@H]3CCCN3C(=O)Nc3ccc(C(C)C)c(C)c3)n2)ccc1C(N)=O` [Example 15, (2R)—N^2-[1-(4-Carbamoyl-3-methylphenyl)-1H-pyrazol-3-yl]-N^1-[3-methyl-4-(propan-2-yl)phenyl]pyrrolidine-1,2-dicarboxamide] showed a half-maximal inhibitory concentration (IC50) of 41 nM.

`Cc1c(C(=O)O)ccc(-n2ccc(NC(=O)[C@H]3CCCN3C(=O)COc3ccc(OC(F)(F)F)cc3)n2)c1F` [Example 65, 3-fluoro-2-methyl-4-{3-[(1-{[4-(trifluoromethoxy)phenoxy]acetyl}-D-prolyl)amino]-1H-pyrazol-1-yl}benzoic acid] came in with a 50% inhibitory concentration (IC50) of 40 nM.

Consider `CC(C)c1ccc(NC(=O)N2CCC[C@@H]2C(=O)Nc2ccn(-c3ccc(C(=O)O)cc3F)n2)cc1F` [Example 34, 3-fluoro-4-{3-[(1-{[3-fluoro-4-(propan-2-yl)phenyl]carbamoyl}-D-prolyl)amino]-1H-pyrazol-1-yl}benzoic acid], for which the IC50 came out at 15 nM.

As to `Cc1cc(-n2ccc(NC(=O)[C@H]3CCCN3C(=O)Nc3ccc(C4CCCC4)cc3)n2)ccc1C(=O)O` [Example 45, 4-[3-({1-[(4-cyclopentylphenyl)carbamoyl]-D-prolyl}amino)-1H-pyrazol-1-yl]-2-methylbenzoic acid], half-maximal inhibition (IC50) required 8.4 nM.

In turn, `Cc1cc(-n2ccc(NC(=O)[C@H]3CCCN3C(=O)Nc3ccc(C(C)C)cc3)n2)c(F)cc1C(=O)O` [Example 50, 5-fluoro-2-methyl-4-{3-[(1-{[4-(propan-2-yl)phenyl]carbamoyl}-D-prolyl)amino]-1H-pyrazol-1-yl}benzoic acid] had an IC50 of 21 nM.

The molecule `CC(C)c1ccc(NC(=O)N2CCC[C@@H]2C(=O)Nc2ccn(-c3ccc(O)cc3F)n2)cc1` [Example 44] had an IC50 of 34 nM.

As to `Cc1cc(-n2ccc(NC(=O)[C@H]3CCCN3C(=O)Nc3ccc(Cl)c(C(F)(F)F)c3)n2)ccc1C(=O)O` [Example 46, 4-{3-[(1-{[4-chloro-3-(trifluoromethyl)phenyl]carbamoyl}-D-prolyl)amino]-1H-pyrazol-1-yl}-2-methylbenzoic acid], the midpoint of inhibition, the IC50, lay at 75 nM.

As to `CC(C)c1ccc(NC(=O)N2CCC[C@@H]2C(=O)Nc2ccn(-c3ccc(C(=O)O)c(F)c3)n2)cc1` [Example 32, 2-fluoro-4-{3-[(1-{[4-(propan-2-yl)phenyl]carbamoyl}-D-prolyl)amino]-1H-pyrazol-1-yl}benzoic acid], the IC50 is 280 nM.
